Assay [1] has as its system Phosphorylated Ribosomal Protein S6 (RPS6). The assay can be described thus: THP-1 RPS6 ELISA Assay. The settings on record: THP-1 cells, read-out: PI3Kγ_THP1_RPS6_ELISA IC50. It counts as cell-based, Human. A digest of the protocol:
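IC50 values come from a curve of percent inhibition against log compound concentration, using phospho-RPS6 ELISA (450 nm) on THP-1 lysates. Cells were serum-starved overnight, exposed to compound for 2 h at 37 °C, then challenged 15 min with 10 nM MCP-1.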

In assay [2] the target is PI3Kγ (p110γ) Recombinant Human Protein (Homo sapiens (Human), UniProt P48736). As to the kind of experiment: PI3K-γ Scintillation Proximity Assay. The settings on record: read-out: PI3Kγ IC50. In kind it is biochemical. A digest of the protocol:
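Radiometric SPA readout: […] bound to WGA beads after overnight shaking, IC50 derived from % activity of DMSO control. Reaction used human p110γ, 2 μM ATP, 20 μM PIP2, pH 6.7 MOPS buffer with MgCl2, DTT, CHAPS, 2% DMSO, room temperature.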

The target in assay [3] is PI3Kδ (p110δ/p85α) Recombinant Human Protein (Homo sapiens (Human), UniProt O00329). The assay can be described thus: PI3Kδ Scintillation Proximity Assay. In kind it is biochemical. An outline of the steps:
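IC50 was fitted to percent solvent-control activity from SPA scintillation counts after WGA bead capture of 33P-labelled lipid product. Reaction: 120 min, room temperature, 3.4 nM p110δ/p85α, 20 μM PIP2, 2 μM ATP with tracer, MOPS pH 6.7 buffer containing MgCl2, DTT, CHAPS, 2% DMSO.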

pIC50: −log10 of the molar value. Where a name gives a salt, the structure may show the parent alone. Read-outs that look alike come from different tables or passages of the source.

PI3Kδ (p110δ/p85α) Recombinant Human Protein, sequence (O00329 whole entry): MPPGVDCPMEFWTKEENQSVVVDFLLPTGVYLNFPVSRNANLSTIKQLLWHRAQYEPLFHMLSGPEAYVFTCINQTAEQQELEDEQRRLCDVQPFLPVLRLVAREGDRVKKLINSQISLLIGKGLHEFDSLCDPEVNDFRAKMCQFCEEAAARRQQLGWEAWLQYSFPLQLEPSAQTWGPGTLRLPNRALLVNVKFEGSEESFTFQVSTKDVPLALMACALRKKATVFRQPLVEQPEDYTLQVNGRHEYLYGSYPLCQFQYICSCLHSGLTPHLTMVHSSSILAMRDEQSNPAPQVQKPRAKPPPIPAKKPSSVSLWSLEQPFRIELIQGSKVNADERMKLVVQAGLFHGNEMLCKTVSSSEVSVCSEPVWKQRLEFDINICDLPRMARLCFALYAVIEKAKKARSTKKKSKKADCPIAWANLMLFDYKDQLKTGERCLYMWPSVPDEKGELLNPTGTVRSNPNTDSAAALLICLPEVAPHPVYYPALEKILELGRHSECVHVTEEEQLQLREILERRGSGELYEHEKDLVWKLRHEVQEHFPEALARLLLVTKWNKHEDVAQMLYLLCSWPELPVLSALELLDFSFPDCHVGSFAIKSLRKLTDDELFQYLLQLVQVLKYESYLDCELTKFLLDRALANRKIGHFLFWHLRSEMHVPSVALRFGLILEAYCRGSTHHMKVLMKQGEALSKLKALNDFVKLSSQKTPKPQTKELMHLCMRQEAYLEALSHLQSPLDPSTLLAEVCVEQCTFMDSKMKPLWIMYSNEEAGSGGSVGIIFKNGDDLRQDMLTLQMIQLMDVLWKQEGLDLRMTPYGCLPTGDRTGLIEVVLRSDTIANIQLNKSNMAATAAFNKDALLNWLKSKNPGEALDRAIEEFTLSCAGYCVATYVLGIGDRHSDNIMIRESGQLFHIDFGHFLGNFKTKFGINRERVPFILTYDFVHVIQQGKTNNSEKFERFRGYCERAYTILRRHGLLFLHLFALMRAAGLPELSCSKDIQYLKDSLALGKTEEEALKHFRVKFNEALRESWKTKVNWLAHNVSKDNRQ
PI3Kδ (p110δ/p85α) Recombinant Human Protein, sequence (P27986 whole entry partner): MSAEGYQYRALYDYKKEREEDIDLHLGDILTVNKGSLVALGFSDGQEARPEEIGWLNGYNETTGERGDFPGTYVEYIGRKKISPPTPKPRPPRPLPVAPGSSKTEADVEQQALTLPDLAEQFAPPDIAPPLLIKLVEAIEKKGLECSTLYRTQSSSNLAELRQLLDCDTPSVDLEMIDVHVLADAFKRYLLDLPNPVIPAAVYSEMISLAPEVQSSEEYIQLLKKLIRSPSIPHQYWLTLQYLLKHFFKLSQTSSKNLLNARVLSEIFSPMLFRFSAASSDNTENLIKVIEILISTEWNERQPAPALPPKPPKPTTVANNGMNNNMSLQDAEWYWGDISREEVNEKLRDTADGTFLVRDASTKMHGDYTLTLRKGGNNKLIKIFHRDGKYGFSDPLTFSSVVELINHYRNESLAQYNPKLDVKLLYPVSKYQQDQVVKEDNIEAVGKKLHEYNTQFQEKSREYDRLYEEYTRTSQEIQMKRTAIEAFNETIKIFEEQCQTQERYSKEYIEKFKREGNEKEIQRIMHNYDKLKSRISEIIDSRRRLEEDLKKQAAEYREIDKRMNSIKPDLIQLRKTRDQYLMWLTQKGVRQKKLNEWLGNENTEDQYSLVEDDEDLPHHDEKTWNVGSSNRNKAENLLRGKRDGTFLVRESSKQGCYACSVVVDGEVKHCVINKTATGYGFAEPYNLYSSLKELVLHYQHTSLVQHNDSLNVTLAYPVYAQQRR
PI3Kγ (p110γ) Recombinant Human Protein, sequence (P48736 whole entry): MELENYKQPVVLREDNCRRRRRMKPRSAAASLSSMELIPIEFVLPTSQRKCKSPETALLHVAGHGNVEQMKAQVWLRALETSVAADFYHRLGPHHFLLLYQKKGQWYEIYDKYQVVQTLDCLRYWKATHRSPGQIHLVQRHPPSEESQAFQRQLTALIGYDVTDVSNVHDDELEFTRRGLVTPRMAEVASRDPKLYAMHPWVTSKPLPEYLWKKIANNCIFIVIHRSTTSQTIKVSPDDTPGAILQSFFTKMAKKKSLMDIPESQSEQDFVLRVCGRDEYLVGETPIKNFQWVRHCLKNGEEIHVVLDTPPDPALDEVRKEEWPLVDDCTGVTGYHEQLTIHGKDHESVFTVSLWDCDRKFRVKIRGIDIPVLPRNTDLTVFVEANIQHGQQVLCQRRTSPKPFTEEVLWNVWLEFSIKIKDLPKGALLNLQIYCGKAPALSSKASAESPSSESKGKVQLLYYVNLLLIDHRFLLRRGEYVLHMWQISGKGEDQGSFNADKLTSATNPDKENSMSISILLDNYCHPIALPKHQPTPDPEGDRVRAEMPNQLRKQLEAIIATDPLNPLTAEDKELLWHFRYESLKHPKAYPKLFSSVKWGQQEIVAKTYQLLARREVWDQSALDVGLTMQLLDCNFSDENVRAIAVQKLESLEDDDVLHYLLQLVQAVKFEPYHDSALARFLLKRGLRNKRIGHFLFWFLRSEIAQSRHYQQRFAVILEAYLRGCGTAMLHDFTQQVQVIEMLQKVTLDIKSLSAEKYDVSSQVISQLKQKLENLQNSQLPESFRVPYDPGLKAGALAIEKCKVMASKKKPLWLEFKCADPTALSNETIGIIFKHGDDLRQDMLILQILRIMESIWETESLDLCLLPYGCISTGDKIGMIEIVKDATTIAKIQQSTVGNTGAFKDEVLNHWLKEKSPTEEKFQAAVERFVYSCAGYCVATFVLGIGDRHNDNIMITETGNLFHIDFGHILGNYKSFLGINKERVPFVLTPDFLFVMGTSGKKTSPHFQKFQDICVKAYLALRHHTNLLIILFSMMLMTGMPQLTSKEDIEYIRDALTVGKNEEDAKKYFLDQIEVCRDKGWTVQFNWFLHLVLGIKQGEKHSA

Regarding `Cc1ccc(S(=O)(=O)N[C@H]2C[C@@H](CO)C2)cc1-c1cnc2c(N)ncnn12` [Example 61, 3-(4-Aminoimidazo[2,1-f][1,2,4]triazin-7-yl)-N-[cis-3-(hydroxymethyl)cyclobutyl]-4-methylbenzenesulfonamide], the negative-log IC50 (pIC50) in assay [1] (Homo sapiens) was 6.00 to 6.30; in assay [2], over 7.00; in assay [3], 5.70 to 6.30.

For the compound `Cc1ccc(S(=O)(=O)N[C@H]2C[C@H](O)C2)cc1-c1cnc2c(N)ncnn12` [Example 71, 3-(4-Aminoimidazo[2,1-f][1,2,4]triazin-7-yl)-N-(trans-3-hydroxycyclobutyl)-4-methylbenzenesulfonamide], the negative logarithm of the IC50 (pIC50) was 6.30 to 7.00 in assay [1] (Homo sapiens), over 7.00 in assay [2] and under 5.70 in assay [3].

With `Cc1ccc(S(=O)(=O)N2CCCC(CO)C2)cc1-c1cnc2c(N)nc(C(F)(F)F)cn12` (stereo not drawn) [Example 472, (1-((3-(8-Amino-6-(trifluoromethyl)imidazo[1,2-a]pyrazin-3-yl)-4-methylphenyl)sulfonyl)piperidin-3-yl)methanol], the pIC50 in assay [1] (Homo sapiens) is 6.30 to 7.00; in assay [2], over 7.00; in assay [3] it was 6.30 to 7.00.

`Cc1ccc(S(=O)(=O)N[C@H]2CC[C@@H](O)CC2)cc1-c1cnc2c(N)ncnn12` [Example 63, 3-(4-Aminoimidazo[2,1-f][1,2,4]triazin-7-yl)-N-(cis-4-hydroxycyclohexyl)-4-methylbenzenesulfonamide]: the negative-log IC50 (pIC50) is 6.30 to 7.00 in assay [1] (Homo sapiens), over 7.00 in assay [2] and 6.30 to 7.00 in assay [3].

For `Cc1ccc(S(C)(=O)=O)cc1-c1cnc2c(N)nc(-c3ccncc3F)cn12` [Example 476, 6-(3-Fluoropyridin-4-yl)-3-(2-methyl-5-(methylsulfonyl)phenyl)imidazo[1,2-a]pyrazin-8-amine trifluoroacetate], the negative logarithm of the IC50 (pIC50) in assay [1] (Homo sapiens) is 6.30 to 7.00; in assay [2], over 7.00; in assay [3], 6.30 to 7.00.

In the case of `CO[C@H]1CC[C@H](NS(=O)(=O)c2ccc(C)c(-c3cnc4c(N)nccn34)c2)CC1` [Example 53, 3-(8-Aminoimidazo[1,2-a]pyrazin-3-yl)-N-(trans-4-methoxycyclohexyl)-4-methylbenzenesulfonamide], the pIC50 was under 6.00 in assay [1] (Homo sapiens), over 7.00 in assay [2] and 5.70 to 6.30 in assay [3].

In the case of `Cc1ccc(S(=O)(=O)NC23CC(c4nccn4C)(C2)C3)cc1-c1cnc2c(N)nc(C(F)(F)F)cn12` [Example 294, 3-(8-Amino-6-(trifluoromethyl)imidazo[1,2-a]pyrazin-3-yl)-4-methyl-N-(3-(1-methyl-1H-imidazol-2-yl)bicyclo[1.1.1]pentan-1-yl)benzenesulfonamide trifluoroacetate salt], the negative-log IC50 (pIC50) in assay [1] (Homo sapiens) is under 6.00; in assay [2], over 7.00; in assay [3] it was 5.70 to 6.30.

With `Nc1ncnn2c(-c3ccc(Cl)c(S(=O)(=O)NC45CCC(CO)(C4)C5)c3)cnc12` [Example 367, 5-(4-Aminoimidazo[1,2-f][1,2,4]triazin-7-yl)-2-chloro-N-(4-(hydroxymethyl)bicyclo[2.1.1]hexan-1-yl)benzenesulfonamide trifluoroacetate salt], the pIC50 is under 6.00 in assay [1], over 7.00 in assay [2] and 6.30 to 7.00 in assay [3].

Turning to `Cc1ccc(S(=O)(=O)CC2(O)CCC2)cc1-c1cnc2c(N)nc(-c3ccncc3F)cn12` [Example 503, 1-(((3-(8-Amino-6-(3-fluoropyridin-4-yl)imidazo[1,2-a]pyrazin-3-yl)-4-methylphenyl)sulfonyl)methyl)cyclobutan-1-ol], the pIC50 is 6.30 to 7.00 in assay [1] (Homo sapiens), over 7.00 in assay [2] and over 7.00 in assay [3].

With `Cc1cn2c(-c3cc(S(=O)(=O)NC45CCC(CO)(C4)C5)ccc3C)cnc2c(N)n1` [Example 262, 3-(8-Amino-6-methylimidazo[1,2-a]pyrazin-3-yl)-N-(4-(hydroxymethyl)bicyclo[2.1.1]hexan-1-yl)-4-methylbenzenesulfonamide], the negative-log IC50 (pIC50) in assay [1] (Homo sapiens) is 6.30 to 7.00; in assay [2], over 7.00; in assay [3], over 7.00.

For `Cc1ccc(S(=O)(=O)N(CCC#N)C2CCCC2)cc1-c1cnc2c(N)ncnn12` [Example 165, 3-(4-aminoimidazo[2,1-f][1,2,4]triazin-7-yl)-N-(2-cyanoethyl)-N-cyclopentyl-4-methylbenzenesulfonamide], the results for the negative-log IC50 (pIC50) in assay [1] (Homo sapiens), in assay [2] and in assay [3] were 6.00 to 6.30, over 7.00 and 6.30 to 7.00, respectively.

As for `[2H][C@]1(NS(=O)(=O)c2ccc(C)c(-c3cnc4c(N)ncnn34)c2)CC[C@@](C)(O)CC1` [Example 507, 3-(4-Aminoimidazo[2,1-f][1,2,4]triazin-7-yl)-N-((1s,4s)-4-hydroxy-4-methylcyclohexyl-1-d)-4-methylbenzenesulfonamide], the pIC50 in assay [1] (Homo sapiens) was 6.00 to 6.30; in assay [2] it was over 7.00; in assay [3] it was 6.30 to 7.00.

Take `Cc1ccc(S(=O)(=O)NCC2CC(F)(F)C2)cc1-c1cnc2c(N)nc(C(=O)NC3CCC3)cn12` [Example 446, 8-amino-N-cyclobutyl-3-(5-(N-((3,3-difluorocyclobutyl)methyl)sulfamoyl)-2-methylphenyl)imidazo[1,2-a]pyrazine-6-carboxamide trifluoroacetate salt]: the pIC50 in assay [1] (Homo sapiens) is 6.30 to 7.00; in assay [2], over 7.00; in assay [3], 6.30 to 7.00.

With `Cc1cc(-c2cn3c(-c4cc(S(C)(=O)=O)ccc4C)cnc3c(N)n2)c(F)cn1` [Example 489, 6-(5-Fluoro-2-methylpyridin-4-yl)-3-(2-methyl-5-(methylsulfonyl)phenyl)imidazo[1,2-a]pyrazin-8-amine trifluoroacetate], the pIC50 was 6.30 to 7.00 in assay [1] (Homo sapiens), over 7.00 in assay [2] and 6.30 to 7.00 in assay [3].

As to `Cc1ccc(S(=O)(=O)NC2CCCCC2O)cc1-c1cnc2c(N)ncnn12` (stereo not drawn) [Example 137, 3-(4-aminoimidazo[2,1-f][1,2,4]triazin-7-yl)-N-(2-hydroxycyclohexyl)-4-methylbenzenesulfonamide], the pIC50 in assay [1] (Homo sapiens) was under 6.00; in assay [2], over 7.00; in assay [3], 5.70 to 6.30.

Turning to `Cc1ccc(S(=O)(=O)N[C@H]2CC[C@H](O)CC2)cc1-c1cnc2c(N)nc(-c3c(C)noc3C)cn12` [Example 77, 3-[8-amino-6-(3,5-dimethylisoxazol-4-yl)imidazo[1,2-a]pyrazin-3-yl]-N-(trans-4-hydroxycyclohexyl)-4-methylbenzenesulfonamide], the pIC50 in assay [1] (Homo sapiens) was 6.30 to 7.00; in assay [2], over 7.00; in assay [3] it was 6.30 to 7.00.

As for `Cc1nc(N)c2ncc(-c3cc(S(=O)(=O)NCC(C)(C)O)c(Cl)cc3C)n2n1` [Example 403, 5-(4-amino-2-methylimidazo[1,2-f][1,2,4]triazin-7-yl)-2-chloro-N-(2-hydroxy-2-methylpropyl)-4-methylbenzenesulfonamide trifluoroacetate salt], the pIC50 is over 7.00 in assay [1], over 7.00 in assay [2] and 6.30 to 7.00 in assay [3].

On to `COc1ncccc1-c1cn2c(-c3cc(S(C)(=O)=O)ccc3C)cnc2c(N)n1` [Example 477, 6-(2-Methoxypyridin-3-yl)-3-(2-methyl-5-(methylsulfonyl)phenyl)imidazo[1,2-a]pyrazin-8-amine trifluoroacetate], for which the results for the negative logarithm of the IC50 (pIC50) in assay [1], in assay [2] and in assay [3] were 6.30 to 7.00, over 7.00 and 6.30 to 7.00, respectively.

`N#CC12CCC(NS(=O)(=O)c3cc(-c4cnc5c(N)nc(C(F)(F)F)cn45)ccc3Cl)(C1)C2` [Example 392, 5-(8-Amino-6-(trifluoromethyl)imidazo[1,2-a]pyrazin-3-yl)-2-chloro-N-(4-cyanobicyclo[2.1.1]hexan-1-yl)benzenesulfonamide trifluoroacetate salt]: the figures for the pIC50 in assay [1] (Homo sapiens), in assay [2] and in assay [3] were 6.30 to 7.00, over 7.00 and over 7.00, respectively.

For `Cc1ccc(S(=O)(=O)NC23CC(Cn4cncn4)(C2)C3)cc1-c1cnc2c(N)ncnn12` [Example 113, N-(3-((1H-1,2,4-triazol-1-yl)methyl)bicyclo[1.1.]pentan-1-yl)-3-(4-aminoimidazo[1,2-f][1,2,4]triazin-7-yl)-4-methylbenzenesulfonamide trifluoroacetate salt], the pIC50 was 6.30 to 7.00 in assay [1], over 7.00 in assay [2] and 5.70 to 6.30 in assay [3].

With `Cc1ccc(S(=O)(=O)NC23CC(N4CCOCC4)(C2)C3)cc1-c1cnc2c(N)nc(C(F)(F)F)nn12` [Example 340, 3-(4-Amino-2-(trifluoromethyl)imidazo[1,2-f][1,2,4]triazin-7-yl)-4-methyl-N-(3-morpholinobicyclo[1.1.1]pentan-1-yl)benzenesulfonamide trifluoroacetate salt], the pIC50 in assay [1] was 6.30 to 7.00; in assay [2] it was over 7.00; in assay [3] it was 6.30 to 7.00.

On to `Cc1ccc(S(=O)(=O)N[C@H]2CC[C@H](CC#N)OC2)cc1-c1cnc2c(N)nc(C(=O)NC3CC(F)(F)C3)cn12` [Example 451, 8-amino-3-(5-(N-((3S,6R)-6-(cyanomethyl)tetrahydro-2H-pyran-3-yl)sulfamoyl)-2-methylphenyl)-N-(3,3-difluorocyclobutyl)imidazo[1,2-a]pyrazine-6-carboxamide trifluoroacetate salt], for which the values for the negative logarithm of the IC50 (pIC50) in assay [1] (Homo sapiens), in assay [2] and in assay [3] were 6.00 to 6.30, over 7.00 and 6.30 to 7.00, respectively.

(Values after patent US10479795B2 (Incyte Corporation, priority 2016, dated 2019).)
